In general, Ki refers to the dissociation constant of the complex between target and ligand, obtained from inhibition or displacement. A lower Ki goes with tighter binding.

Results on 6 compounds are retold here after ChEMBL document CHEMBL1133677, “Carbonic anhydrase and matrix metalloproteinase inhibitors: sulfonylated amino acid hydroxamates with MMP inhibitory properties act as efficient inhibitors of CA isozymes I, II, and IV, and N-hydroxysulfonamides inhibit both these zinc enzymes” (J Med Chem, 2000).

Assay [1] has as its target T1, Carbonic anhydrase 4 (Bos taurus, UniProt Q95323).
T1 sequence (Q95323 whole entry): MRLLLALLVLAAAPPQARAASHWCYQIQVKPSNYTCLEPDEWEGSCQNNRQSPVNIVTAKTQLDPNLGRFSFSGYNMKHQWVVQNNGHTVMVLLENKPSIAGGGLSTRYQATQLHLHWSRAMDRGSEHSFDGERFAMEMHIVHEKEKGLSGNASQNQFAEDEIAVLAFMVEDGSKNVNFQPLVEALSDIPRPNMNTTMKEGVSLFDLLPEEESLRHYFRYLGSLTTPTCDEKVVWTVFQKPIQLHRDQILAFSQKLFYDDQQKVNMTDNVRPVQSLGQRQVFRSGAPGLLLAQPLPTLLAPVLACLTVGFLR

The target of assay [2] is Carbonic anhydrase 2 (Homo sapiens, UniProt P00918).
The target of assay [3] is Carbonic anhydrase 1 (Homo sapiens, UniProt P00915).

Some results are limits rather than exact numbers.

Chain of Carbonic anhydrase 1 (P00915 whole entry): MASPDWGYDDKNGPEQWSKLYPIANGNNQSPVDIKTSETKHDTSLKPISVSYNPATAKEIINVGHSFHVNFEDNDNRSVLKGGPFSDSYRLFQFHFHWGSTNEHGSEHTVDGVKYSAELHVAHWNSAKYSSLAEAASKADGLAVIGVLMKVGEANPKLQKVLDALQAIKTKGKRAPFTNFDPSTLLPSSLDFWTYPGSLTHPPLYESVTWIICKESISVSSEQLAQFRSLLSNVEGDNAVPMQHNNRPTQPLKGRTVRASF

As for `CC(C)C(C(=O)NO)N(Cc1ccccc1)S(=O)(=O)C(F)(F)C(F)(F)C(F)(F)C(F)(F)F` (stereo not drawn), the figures for the Ki in assay [1], in assay [2] and in assay [3] were 124 nM, 108 nM and 140 nM, respectively.

`O=[N+]([O-])c1ccccc1S(=O)(=O)NO`: the Ki worked out at 13 nM in assay [1], 5 nM in assay [2] and 15000 nM in assay [3].

Take `COc1ccc(S(=O)(=O)N(Cc2ccccc2)C(C(=O)NO)C(C)C)cc1` (stereo not drawn): the Ki in assay [1] was 185 nM; in assay [2], greater than 200 nM; in assay [3], greater than 200 nM.

Take `O=S(=O)(Cc1ccccc1)NO`: the Ki in assay [1] was 460 nM; in assay [2], 190 nM; in assay [3] it was 19000 nM.

With `CC(C(=O)NO)N(Cc1ccc([N+](=O)[O-])cc1)S(=O)(=O)C(F)(F)C(F)(F)C(F)(F)C(F)(F)F` (stereo not drawn), the Ki in assay [1], in assay [2] and in assay [3] was greater than 200 nM throughout.

Take `CC(C(=O)NO)N(Cc1ccccc1Cl)S(=O)(=O)C(F)(F)C(F)(F)C(F)(F)C(F)(F)F` (stereo not drawn): the Ki in assay [1], in assay [2] and in assay [3] was greater than 200 nM each time.
